Laboratory results reported in patent US20120115869A1, “TETRAZOLE DERIVATIVES” (MERCK SERONO S.A., priority 2009, published 2012).

molecular target: T1, CRTH2 (DP2) (Homo sapiens, UniProt Q9Y5Y4); experiment: Radioligand binding Scintillation Proximity Assay ([3H]PGD2, hCRTH2-CHO cell membranes); details: 1.5 nM [3H]PGD2, hCRTH2-CHO cell membranes, SPA
T1 construct: host or cells: CHO cells
T1 sequence (Q9Y5Y4 1-395): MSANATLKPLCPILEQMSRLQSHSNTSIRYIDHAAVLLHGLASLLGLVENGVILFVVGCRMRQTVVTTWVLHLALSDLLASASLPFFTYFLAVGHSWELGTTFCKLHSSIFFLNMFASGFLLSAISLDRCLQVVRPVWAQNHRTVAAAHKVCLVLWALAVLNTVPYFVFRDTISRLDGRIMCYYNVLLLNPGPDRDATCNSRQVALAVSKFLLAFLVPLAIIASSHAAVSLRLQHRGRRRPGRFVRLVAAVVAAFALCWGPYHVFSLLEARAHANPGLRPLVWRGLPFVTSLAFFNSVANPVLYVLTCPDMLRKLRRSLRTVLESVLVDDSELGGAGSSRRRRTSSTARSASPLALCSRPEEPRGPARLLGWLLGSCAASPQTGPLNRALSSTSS
Procedure: (§1) Adherent CHO cells expressing hCRTH2 (Euroscreen, Belgium) were cultured in 225 cm^2 cell culture flasks (Corning, USA) in 30 ml of medium. After two rinses of phosphate buffered saline (PBS), cells were harvested in 10 ml of PBS containing 1 mM EDTA, centrifuged at 500×g for 5 min at 4° C. and frozen at −80° C. The pellet was re-suspended in 50 mM Tris-HCl, pH 7.4, 2 mM EDTA, 250 mM Sucrose, containing protease inhibitor cocktail tablets, (Complete EDTA-free, Roche, Germany) and incubated 30 min at 4° C. Cells were disrupted by nitrogen cavitation (Parr Instruments, USA) at 4° C. (800 p.s.i. for 30 min), and centrifuged at 500×g for 10 min at 4° C. Pellet containing nuclei and cellular debris was discarded and supernatant was centrifuged 60 min at 4° C. at 45000×g. Membrane pellet was re-suspended in storage buffer (10 mM HEPES/KOH pH 7.4, 1 mM EDTA, 250 mM sucrose, protease inhibitor cocktail tablets) using Dounce homogenization and frozen in liquid nitrogen, and stored at 80° C.
Non-specific binding was determined in the presence of 10 μM PGD2 (Cayman, USA). Competing Compounds of Formula (I) were diluted in dimethylsulphoxide so that the total volume of dimethylsulfoxide was kept constant at 1% dimethylsulphoxide (Me2SO). Serial dilutions of […] were prepared and 10 μl each of the compounds of Formula (I) stock solutions were added to the binding assay reagents and incubated for 90 min with agitation at room temperature.

Row | SMILES | IC50
1 | CCC(=O)N(Cc1ccc2ncccc2c1)c1cccc(-c2nnn[nH]2)c1 [Example 72, N-(quinolin-6-ylmethyl)-N-[3-(1H-tetrazol-5-yl)phenyl]propanamide] | 1110 nM
2 | CCC(=O)N(Cc1cccc(-c2sc(C)nc2C)c1)c1cccc(-c2nnn[nH]2)c1 [Example 63, N-[3-(2,4-dimethyl-1,3-thiazol-5-yl)benzyl]-N-[3-(1H-tetrazol-5-yl)phenyl]propanamide] | 235 nM
3 | CCCCC(=O)N(Cc1ccc2ccccc2c1)c1cc(-c2nnn[nH]2)ccc1F [Example 6, N-[2-fluoro-5-(1H-tetrazol-5-yl)phenyl]-N-(2-naphthylmethyl)pentanamide] | 23 nM
4 | CCC(=O)N(Cc1ccccc1)c1cccc(-c2nnn[nH]2)c1 [Example 30, N-benzyl-N-[3-(1H-tetrazol-5-yl)phenyl]propanamide] | 2250 nM
5 | CCC(=O)N(Cc1c(-c2ccccc2)noc1C)c1cccc(-c2nnn[nH]2)c1 [Example 23, N-[(5-methyl-3-phenylisoxazol-4-yl)methyl]-N-[3-(1H-tetrazol-5-yl)phenyl]propanamide] | 2960 nM
6 | CCCC#Cc1cccc(CN(C(=O)CC)c2cccc(-c3nnn[nH]3)c2)c1 [Example 49, N-(3-pent-1-yn-1-ylbenzyl)-N-[3-(1H-tetrazol-5-yl)phenyl]propanamide] | 618 nM
7 | CCCCC(=O)N(Cc1ccc(OC(F)(F)F)cc1)c1cc(F)cc(-c2nnn[nH]2)c1 [Example 35, N-[3-fluoro-5-(1H-tetrazol-5-yl)phenyl]-N-[4-(trifluoromethoxy)benzyl]pentanamide] | 8.9 nM
8 | CCCCC(=O)N(Cc1cccc(O)c1)c1cccc(-c2nnn[nH]2)c1 [Example 79, N-(3-hydroxybenzyl)-N-[3-(1H-tetrazol-5-yl)phenyl]pentanamide] | 140 nM
9 | CCC(=O)N(Cc1nonc1C)c1cccc(-c2nnn[nH]2)c1 [Example 44, N-[(4-methyl-1,2,5-oxadiazol-3-yl)methyl]-N-[3-(1H-tetrazol-5-yl)phenyl]propanamide] | 2100 nM
10 | CC(C)CC(=O)N(Cc1ccc2c(c1)OCCO2)c1cc(-c2nnn[nH]2)ccc1F [Example 7, N-(2,3-dihydro-1,4-benzodioxin-6-ylmethyl)-N-[2-fluoro-5-(1H-tetrazol-5-yl)phenyl]-3-methylbutanamide] | 7.1 nM
11 | CCC(=O)N(Cc1nc2ccccc2s1)c1cccc(-c2nnn[nH]2)c1 [Example 43, N-(1,3-benzothiazol-2-ylmethyl)-N-[3-(1H-tetrazol-5-yl)phenyl]propanamide] | 663 nM
12 | CCCC(=O)N(Cc1ccc2c(c1)OCCO2)c1cc(-c2nnn[nH]2)ccc1F [Example 8, N-(2,3-dihydro-1,4-benzodioxin-6-ylmethyl)-N-[2-fluoro-5-(1H-tetrazol-5-yl)phenyl]butanamide] | 6.3 nM
13 | CCC(=O)N(Cc1cccc(C)c1)c1cccc(-c2nnn[nH]2)c1 [Example 73, N-(3-methylbenzyl)-N-[3-(1H-tetrazol-5-yl)phenyl]propanamide] | 662 nM
14 | CCC(=O)N(Cc1cccc(C(F)(F)F)c1)c1cccc(-c2nnn[nH]2)c1 [Example 28, N-[3-(1H-tetrazol-5-yl)phenyl]-N-[3-(trifluoromethyl)benzyl]propanamide] | 268 nM
15 | CCCCC(=O)N(Cc1ccc2c(c1)OCCO2)c1cc(-c2nnn[nH]2)ccc1F [Example 15, N-(2,3-dihydro-1,4-benzodioxin-6-ylmethyl)-N-[2-fluoro-5-(1H-tetrazol-5-yl)phenyl]pentanamide] | 4.2 nM
16 | CCC(=O)N(Cc1ccc(OC(F)(F)F)cc1)c1cccc(-c2nnn[nH]2)c1 [Example 22, N-[3-(1H-tetrazol-5-yl)phenyl]-N-[4-(trifluoromethoxy)benzyl]propanamide] | 132 nM
17 | CCC(=O)N(Cc1ccc2c(c1)OCO2)c1cccc(-c2nnn[nH]2)c1 [Example 34, N-(1,3-benzodioxol-5-ylmethyl)-N-[3-(1H-tetrazol-5-yl)phenyl]propanamide] | 147 nM

Next, values leading:

Row | IC50 | SMILES
18 | 8.3 nM | CCC(=O)N(Cc1ccc(-c2c(C)cccc2C)cc1)c1cc(F)cc(-c2nnn[nH]2)c1 [Example 100]
19 | 9.6 nM | CCC(=O)N(Cc1cccc(OC)c1)c1cc(F)cc(-c2nnn[nH]2)c1 [Example 39, N-[3-fluoro-5-(1H-tetrazol-5-yl)phenyl]-N-(3-methoxybenzyl)propanamide]
20 | 57 nM | CCC(=O)N(Cc1ccc(-c2ccncc2)cc1)c1cc(F)cc(-c2nnn[nH]2)c1 [Example 89, N-[3-fluoro-5-(1H-tetrazol-5-yl)phenyl]-N-(4-pyridin-4-ylbenzyl)propanamide]
21 | 19 nM | CCC(=O)N(Cc1cccc(-c2cn[nH]c2)c1)c1cc(F)cc(-c2nnn[nH]2)c1 [Example 101, N-[3-fluoro-5-(1H-tetrazol-5-yl)phenyl]-N-[3-(1H-pyrazol-4-yl)benzyl]propanamide]
22 | 6680 nM | CCC(=O)N(Cc1ccncc1)c1cccc(-c2nnn[nH]2)c1 [Example 52, N-(pyridin-4-ylmethyl)-N-[3-(1H-tetrazol-5-yl)phenyl]propanamide]
23 | 19 nM | CCC(=O)N(Cc1cccc([S+]([O-])C(F)(F)F)c1)c1cc(F)cc(-c2nnn[nH]2)c1 (stereo not shown) [Example 112, N-[3-fluoro-5-(1H-tetrazol-5-yl)phenyl]-N-{3-[(trifluoromethyl)sulfinyl]benzyl}propanamide]
24 | 185 nM | CCC(=O)N(Cc1ccc(-c2cccc(S(C)(=O)=O)c2)cc1)c1cc(F)cc(-c2nnn[nH]2)c1 [Example 87, N-[3-fluoro-5-(1H-tetrazol-5-yl)phenyl]-N-{[3′-(methylsulfonyl)biphenyl-4-yl]methyl}propanamide]
25 | 7.1 nM | CCC(=O)N(Cc1cccc(OC(C)C)c1)c1cc(F)cc(-c2nnn[nH]2)c1 [Example 75, N-[3-fluoro-5-(1H-tetrazol-5-yl)phenyl]-N-(3-isopropoxybenzyl)propanamide]

molecular target: T2, CRTH2 (Homo sapiens, UniProt Q9Y5Y4); experiment: [35S]GTPγS binding assay on CHO-CRTH2 cell membranes; type: biochemical; details: without addition of PGD2; 100% of Emax being the activity measured by the addition of 1 μM of PGD2
T2 construct: expressed in transfected cells; host or cells: CHO cells
T2 sequence (Q9Y5Y4 1-395): T1 sequence (Q9Y5Y4 1-395)
Procedure: as §1
The [^35S]GTPγS assay measures the increase in guanine nucleotide exchange at G-proteins in cell membranes, resulting from agonist (PGD2) binding to CRTH2. […] Briefly, Compounds of Formula (I) are incubated in 96-well scintillating white polystyrene plates (Perkin Elmer, USA) in a final volume of 200 μl containing 20 mM HEPES/KOH pH 7.4, 3 mM MgCl2, 10 μg/ml Saponin, 5 μM GDP, 75 mM NaCl and 2% of dimethylsulphoxide (DMSO). […] After 60 min incubation at 30° C., reaction is stopped by centrifugation at 700×g, at 4° C. for 10 minutes and supernatant is removed. […] For IC50 determination, increasing concentrations of compounds are incubated in presence of a fixed concentration of PGD2 (EC80). For EC50 measurements, compounds are incubated without addition of PGD2. Basal [^35S]GTPγS activity is determined without addition of any ligands or compounds. 100% [^35S]GTPγS activity is measured by the addition of 1 μM of PGD2.

Row | Emax | SMILES
26 | -16.7% | CCC(=O)N(Cc1ccc(-c2c(C)cccc2C)cc1)c1cc(F)cc(-c2nnn[nH]2)c1 [Example 100]
27 | -11.2% | CCC(=O)N(Cc1cccc(OC)c1)c1cc(F)cc(-c2nnn[nH]2)c1 [Example 39, N-[3-fluoro-5-(1H-tetrazol-5-yl)phenyl]-N-(3-methoxybenzyl)propanamide]
28 | -17.1% | CCC(=O)N(Cc1cccc(O)c1)c1cc(F)cc(-c2nnn[nH]2)c1 [Example 84, N-[3-fluoro-5-(1H-tetrazol-5-yl)phenyl]-N-(3-hydroxybenzyl)propanamide]
